# Results published in BindingDB's records for doi:10.1016/s0960-894x(98)00417-x (Affymax Research Institute, 1999).
# Key:
# [1] = target: Mannose-6-phosphate isomerase (Candida albicans) (UniProt P34948); experiment: Compound was evaluated for the inhibition constant against phosphomannose isomerase enzyme of Candida albicans (CaPMI)
# [2] = target: Mannose-6-phosphate isomerase (Candida albicans) (UniProt P34948); experiment: Compound was tested for percentage inhibition of phosphomannose isomerase enzyme of Candida albicans (CaPMI).
# Mannose-6-phosphate isomerase (Candida albicans), sequence (P34948 whole entry, looked up): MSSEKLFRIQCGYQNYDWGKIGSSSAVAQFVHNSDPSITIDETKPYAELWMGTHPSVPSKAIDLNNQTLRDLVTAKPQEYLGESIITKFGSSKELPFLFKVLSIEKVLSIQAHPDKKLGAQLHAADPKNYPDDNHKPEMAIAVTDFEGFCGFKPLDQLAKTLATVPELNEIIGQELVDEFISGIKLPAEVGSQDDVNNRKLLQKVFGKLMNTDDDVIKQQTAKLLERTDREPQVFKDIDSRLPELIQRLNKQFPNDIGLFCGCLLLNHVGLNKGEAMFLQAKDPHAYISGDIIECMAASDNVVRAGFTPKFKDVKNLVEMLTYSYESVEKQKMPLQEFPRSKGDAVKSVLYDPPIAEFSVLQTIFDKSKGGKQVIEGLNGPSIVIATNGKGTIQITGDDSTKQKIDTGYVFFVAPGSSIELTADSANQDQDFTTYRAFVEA
Structure (SMILES),Ki [1],IC50 [2]
"NC(=O)C1(NC(=O)CCCOc2ccc(Cl)cc2Cl)Cc2ccccc2C1 [2-[4-(2,4-Dichloro-phenoxy)-butyrylamino]-indan-2-carboxylic acid amide]",4 µM,–
"O=C(CCCSc1ccc(Cl)c(Cl)c1)NC1(C(=O)NO)Cc2ccccc2C1 [2-[4-(3,4-Dichloro-phenylsulfanyl)-butyrylamino]-indan-2-carboxylic acid hydroxyamide]",4 µM,6 µM
